Source: US20130102619A1, “2-PYRIDYLOXY-4-NITRILE OREXIN RECEPTOR ANTAGONISTS” (priority 2011, published 2013)

What was measured:
human orexin-2 receptor [1] = biological target: T1, human orexin-2 receptor (Homo sapiens (Human), UniProt O43614); assay: FLIPR Ca2+ Flux Assay, CHO cells expressing human orexin-2 receptor; type: cell-based; conditions: 70 pM Ala-6,12 orexin-A agonist, read-out: hOX2R FLIPR IC50
Experimental: (§1) The utility of the compounds in accordance with the present invention as orexin receptor OX1R and/or OX2R antagonists may be readily determined without undue experimentation by methodology well known in the art, including the “FLIPR Ca^2+ Flux Assay” (Okumura et al., Biochem. Biophys. Res. Comm. 280:976-981, 2001). In a typical experiment the OX1 and OX2 receptor antagonistic activity of the compounds of the present invention was determined in accordance with the following experimental method. For intracellular calcium measurements, Chinese hamster ovary (CHO) cells expressing the rat orexin-1 receptor or the human orexin-2 receptor, are grown in Iscove's modified DMEM containing 2 mM L-glutamine, […], 1% hypoxanthine-thymidine supplement, 100 U/ml penicillin, 100 ug/ml streptomycin and 10% heat-inactivated fetal calf serum (FCS). The cells are seeded at 20,000 cells/well into Becton-Dickinson black 384-well clear bottom sterile plates coated with poly-D-lysine. All reagents were from GIBCO-Invitrogen Corp. The seeded plates are incubated overnight at 37° C. and 5% CO2. Ala-6,12 human orexin-A as the agonist is prepared as a 1 mM stock solution in 1% bovine serum albumin (BSA) and diluted in assay buffer (HBSS containing 20 mM HEPES, 0.1% BSA and 2.5 mM probenecid, pH7.4) for use in the assay at a final concentration of 70 pM. Test compounds are prepared as 10 mM stock solution in DMSO, then diluted in 384-well plates, first in DMSO, then assay buffer. On the day of the assay, cells are washed 3 times with 100 ul assay buffer and then incubated for 60 min (37° C., 5% CO2) in 60 ul assay buffer containing 1 uM Fluo-4AM ester, 0.02% pluronic acid, and 1% BSA. The dye loading solution is then aspirated and cells are washed 3 times with 100 ul assay buffer. 30 ul of that same buffer is left in each well. Within the Fluorescent Imaging Plate Reader (FLIPR, Molecular Devices), test compounds are added to the plate in a volume of 25 ul, incubated for 5 min and finally 25 ul of agonist is added. Fluorescence is measured for each well at 1 second intervals for 5 minutes and the height of each fluorescence peak is compared to the height of the fluorescence peak induced by 70 pM Ala-6,12 orexin-A with buffer in place of antagonist. […] Alternatively, compound potency can be assessed by a radioligand binding assay (described in Bergman et. al. Bioorg. Med. Chem. Lett. 2008, 18, 1425-1430) in which the inhibition constant (Ki) is determined in membranes prepared from CHO cells expressing either the OX1 or OX2 receptor. The intrinsic orexin receptor antagonist activity of a compound which may be used in the present invention may be determined by these assays.

rat orexin-1 receptor = rat orexin-1 receptor (Rattus norvegicus (Rat), UniProt P56718); assay: FLIPR Ca2+ Flux Assay, CHO cells expressing rat orexin-1 receptor; type: cell-based; conditions: 70 pM Ala-6,12 orexin-A agonist, read-out: hOX1R FLIPR IC50;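 also: concentration giving 50% inhibition of the agonist-induced calcium response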
rat orexin-1 receptor, sequence (P56718 whole entry): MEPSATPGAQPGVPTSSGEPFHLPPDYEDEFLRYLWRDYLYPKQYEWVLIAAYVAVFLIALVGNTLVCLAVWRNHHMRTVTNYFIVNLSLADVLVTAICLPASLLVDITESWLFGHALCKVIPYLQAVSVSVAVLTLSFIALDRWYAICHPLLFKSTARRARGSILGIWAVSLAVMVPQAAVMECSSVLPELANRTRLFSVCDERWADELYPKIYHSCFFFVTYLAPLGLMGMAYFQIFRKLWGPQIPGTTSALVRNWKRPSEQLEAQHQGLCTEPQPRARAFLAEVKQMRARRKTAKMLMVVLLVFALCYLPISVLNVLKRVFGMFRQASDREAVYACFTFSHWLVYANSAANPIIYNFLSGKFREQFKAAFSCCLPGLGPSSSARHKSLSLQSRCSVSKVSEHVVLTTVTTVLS
Experimental: as §1

OX1 receptor (hOX1) = OX1 receptor (hOX1) (Homo sapiens, UniProt O43613); assay: radioligand binding assay, orexin-1 receptor (membranes from CHO cells); conditions: CHO cell membranes, read-out: hOX1 hKi
Experimental: In a typical experiment the OX1 and OX2 receptor antagonistic activity of the compounds of the present invention was determined in accordance with the following experimental method. For intracellular calcium measurements, Chinese hamster ovary (CHO) cells expressing the rat orexin-1 receptor or the human orexin-2 receptor, are grown in Iscove's modified DMEM containing 2 mM L-glutamine, […], 1% hypoxanthine-thymidine supplement, 100 U/ml penicillin, 100 ug/ml streptomycin and 10% heat-inactivated fetal calf serum (FCS). The cells are seeded at 20,000 cells/well into Becton-Dickinson black 384-well clear bottom sterile plates coated with poly-D-lysine. All reagents were from GIBCO-Invitrogen Corp. The seeded plates are incubated overnight at 37° C. and 5% CO2. Ala-6,12 human orexin-A as the agonist is prepared as a 1 mM stock solution in 1% bovine serum albumin (BSA) and diluted in assay buffer (HBSS containing 20 mM HEPES, 0.1% BSA and 2.5 mM probenecid, pH7.4) for use in the assay at a final concentration of 70 pM. Test compounds are prepared as 10 mM stock solution in DMSO, then diluted in 384-well plates, first in DMSO, then assay buffer. On the day of the assay, cells are washed 3 times with 100 ul assay buffer and then incubated for 60 min (37° C., 5% CO2) in 60 ul assay buffer containing 1 uM Fluo-4AM ester, 0.02% pluronic acid, and 1% BSA. The dye loading solution is then aspirated and cells are washed 3 times with 100 ul assay buffer. 30 ul of that same buffer is left in each well. Within the Fluorescent Imaging Plate Reader (FLIPR, Molecular Devices), test compounds are added to the plate in a volume of 25 ul, incubated for 5 min and finally 25 ul of agonist is added. Fluorescence is measured for each well at 1 second intervals for 5 minutes and the height of each fluorescence peak is compared to the height of the fluorescence peak induced by 70 pM Ala-6,12 orexin-A with buffer in place of antagonist. […] Alternatively, compound potency can be assessed by a radioligand binding assay (described in Bergman et. al. Bioorg. Med. Chem. Lett. 2008, 18, 1425-1430) in which the inhibition constant (Ki) is determined in membranes prepared from CHO cells expressing either the OX1 or OX2 receptor. The intrinsic orexin receptor antagonist activity of a compound which may be used in the present invention may be determined by these assays.

human orexin-2 receptor [2] = biological target: T1, human orexin-2 receptor; assay: radioligand binding assay, orexin-2 receptor (membranes from CHO cells); conditions: CHO cell membranes, read-out: hOX2 hKi
Experimental: as §1

T1 sequence (O43614 whole entry): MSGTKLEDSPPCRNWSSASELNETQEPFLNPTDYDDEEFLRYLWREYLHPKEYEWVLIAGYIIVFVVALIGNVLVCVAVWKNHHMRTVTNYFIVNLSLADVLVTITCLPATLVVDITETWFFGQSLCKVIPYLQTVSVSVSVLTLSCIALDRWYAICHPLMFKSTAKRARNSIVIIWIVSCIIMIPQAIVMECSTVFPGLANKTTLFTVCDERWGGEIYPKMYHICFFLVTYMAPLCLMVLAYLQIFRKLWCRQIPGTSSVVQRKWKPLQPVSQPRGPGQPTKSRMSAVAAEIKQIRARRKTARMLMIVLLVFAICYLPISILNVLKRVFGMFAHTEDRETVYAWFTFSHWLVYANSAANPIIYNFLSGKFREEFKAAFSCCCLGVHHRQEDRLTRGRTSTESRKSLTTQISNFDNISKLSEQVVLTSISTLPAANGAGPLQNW

SMILES | Ki (OX1 receptor (hOX1)) [nM] | Ki (human orexin-2 receptor [2]) [nM] | IC50 (human orexin-2 receptor [1]) [nM] | IC50 (rat orexin-1 receptor) [nM]
Cc1cccc(-n2nccn2)c1C(=O)N1C[C@H](Oc2cc(C#N)ccn2)CC[C@H]1C [Example 4, 2-{[(3R,6R)-6-methyl-1-{[2-methyl-6-(2H-1,2,3-triazol-2-yl)phenyl]carbonyl}piperidin-3-yl]oxy}pyridine-4-carbonitrile] | 932 | 2.3 | 29 | > 10000
Cc1cccc(C(=O)N2C[C@H](Oc3cc(C#N)ccn3)CC[C@H]2C)c1-n1nccn1 [Example 5, 2-{[(3R,6R)-6-methyl-1-{[3-methyl-2-(2H-1,2,3-triazol-2-yl)phenyl]carbonyl}piperidin-3-yl]oxy}pyridine-4-carbonitrile] | 669 | 3 | 17 | 2330
C[C@@H]1CC[C@@H](Oc2cc(C#N)ccn2)CN1C(=O)c1cccc(F)c1-n1nccn1 [Example 6, 2-{[(3R,6R)-1-{[3-fluoro-2-(2H-1,2,3-triazol-2-yl)phenyl]carbonyl}-6-methylpiperidin-3-yl]oxy}pyridine-4-carbonitrile] | 1900 | 5.5 | 18 | > 10000
C[C@@H]1CC[C@@H](Oc2cc(C#N)ccn2)CN1C(=O)c1ccc(Cl)cc1-n1nccn1 [Example 7, 2-{[(3R,6R)-1-{[4-chloro-2-(2H-1,2,3-triazol-2-yl)phenyl]carbonyl}-6-methylpiperidin-3-yl]oxy}pyridine-4-carbonitrile] | 997 | 1.1 | 17 | 3840
C[C@@H]1CC[C@@H](Oc2cc(C#N)ccn2)CN1C(=O)c1cn(C)nc1-n1nccn1 [Example 12, 2-{[(3R,6R)-6-methyl-1-{[1-methyl-3-(2H-1,2,3-triazol-2-yl)-1H-pyrazol-4-yl]carbonyl}piperidin-3-yl]oxy}pyridine-4-carbonitrile] | 5640 | 151 | – | –
Cc1nsc(-n2nccn2)c1C(=O)N1C[C@H](Oc2cc(C#N)ccn2)CC[C@H]1C [Example 13, 2-{[(3R,6R)-6-methyl-1-{[3-methyl-5-(2H-1,2,3-triazol-2-yl)isothiazol-4-yl]carbonyl}piperidin-3-yl]oxy}pyridin-4-carbonitrile] | 34500 | 137 | – | –
CCOc1ccc(C(=O)N2C[C@H](Oc3cc(C#N)ccn3)CC[C@H]2C)c(-n2nccn2)c1 [Example 21, 2-{[(3R,6R)-1-{[4-ethoxy-2-(2H-1,2,3-triazol-2-yl)phenyl]carbonyl}-6-methylpiperidin-3-yl]oxy}pyridine-4-carbonitrile] | 23200 | 3920 | – | –
COc1ccc(C(=O)N2C[C@H](Oc3cc(C#N)ccn3)CC[C@H]2C)c(Cl)n1 [Example 28, 2-({(3R,6R)-1-[(2-chloro-6-methoxypyridin-3-yl)carbonyl]-6-methylpiperidin-3-yl}oxy)pyridine-4-carbonitrile] | 2820 | 618 | – | –
C[C@@H]1CC[C@@H](Oc2cc(C#N)ccn2)CN1C(=O)c1ccccc1-n1ncnn1 [Example 30, 2-{[(3R,6R)-6-methyl-1-{[2-(2H-tetrazol-2-yl)phenyl]carbonyl}piperidin-3-yl]oxy}pyridine-4-carbonitrile] | – | – | 110 | < 10000
C[C@@H]1CC[C@@H](Oc2cc(C#N)ccn2)CN1C(=O)c1ccsc1-c1ncccn1 [Example 32, 2-({(3R,6R)-6-methyl-1-[(2-pyrimidin-2-ylthiophen-3-yl)carbonyl]piperidin-3-yl}oxy)pyridine-4-carbonitrile] | – | 2.1 | 44 | 6740

More lines, main results first:

Ki (OX1 receptor (hOX1)) [nM] | Ki (human orexin-2 receptor [2]) [nM] | SMILES | IC50 (human orexin-2 receptor [1]) [nM] | IC50 (rat orexin-1 receptor) [nM]
13000 | 94 | C[C@@H]1CC[C@@H](Oc2cc(C#N)ccn2)CN1C(=O)c1nscc1-n1nccn1 [Example 11, 2-{[(3R,6R)-6-methyl-1-{[4-(2H-1,2,3-triazol-2-yl)isothiazol-3-yl]carbonyl}piperidin-3-yl]oxy}pyridine-4-carbonitrile] | – | –
5640 | 57 | C[C@@H]1CC[C@@H](Oc2cc(C#N)ccn2)CN1C(=O)c1cc(Cl)ccc1-n1nccn1 [Example 16, 2-{[(3R,6R)-1-{[5-chloro-2-(2H-1,2,3-triazol-2-yl)phenyl]carbonyl}-6-methylpiperidin-3-yl]oxy}pyridine-4-carbonitrile] | – | –
1290 | 134 | C[C@@H]1CC[C@@H](Oc2cc(C#N)ccn2)CN1C(=O)c1cc(C(N)=O)ccc1-n1nccn1 [Example 18, 3-({(2R,5R)-5-[(4-cyanopyridin-2-yl)oxy]-2-methylpiperidin-1-yl}carbonyl)-4-(2H-1,2,3-triazol-2-yl)benzamide] | – | –
7840 | 35 | C[C@@H]1CC[C@@H](Oc2cc(C#N)ccn2)CN1C(=O)c1ccc(OCF)cc1-n1nccn1 [Example 23, 2-{[(3R,6R)-1-{[4-(fluoromethoxy)-2-(2H-1,2,3-triazol-2-yl)phenyl]carbonyl}-6-methylpiperidin-3-yl]oxy}pyridine-4-carbonitrile] | – | –
23900 | 79 | C[C@@H]1CC[C@@H](Oc2cc(C#N)ccn2)CN1C(=O)c1ccc(OC(F)F)cc1-n1nccn1 [Example 24, 2-{[(3R,6R)-1-{[4-(difluoromethoxy)-2-(2H-1,2,3-triazol-2-yl)phenyl]carbonyl}-6-methylpiperidin-3-yl]oxy}pyridine-4-carbonitrile] | – | –
9440 | 10900 | C[C@@H]1CC[C@@H](Oc2cc(C#N)ccn2)CN1C(=O)c1ccc(OCCO)cc1-n1nccn1 [Example 25, 2-{[(3R,6R)-1-{[4-(2-hydroxyethoxy)-2-(2H-1,2,3-triazol-2-yl)phenyl]carbonyl}-6-methylpiperidin-3-yl]oxy}pyridine-4-carbonitrile] | – | –
9440 | 162 | Cc1ccc(C(=O)N2C[C@H](Oc3cc(C#N)ccn3)CC[C@H]2C)c(-n2nccn2)n1 [Example 26, 2-{[(3R,6R)-6-methyl-1-{[6-methyl-2-(2H-1,2,3-triazol-2-yl)pyridin-3-yl]carbonyl}piperidin-3-yl]oxy}pyidine-4-carbonitrile] | – | –
9440 | 1040 | C[C@@H]1CC[C@@H](Oc2cc(C#N)ccn2)CN1C(=O)c1ccc(C(F)(F)F)nc1-n1nccn1 [Example 27, 2-{[(3R,6R)-6-methyl-1-{[2-(2H-1,2,3-triazol-2-yl)-6-(trifluoromethyl)pyridin-3-yl]carbonyl}piperidin-3-yl]oxy}pyridine-4-carbonitrile] | – | –
